According to patent US10632133B2, “Anti-viral azide containing compounds” (Life Technologies Corporation, priority 2010, dated 2020):

Tests used:
HIV = HIV infectivity, luciferase reporter assay on TZM/BI reporter cell line with azide-labeled virus; assay type: cell-based, human immunodeficiency virus (HIVNL4-3); conditions: virus produced in CEMx174 cells spiked with the compound; incubated 12 hours on TZM/BI; single cycle replication system; two luciferase reagents (FIGS. 3 and 4)
Procedure: CEMx174 cells were transfected with HIVNL4-3 in a T-150 flask and the virus production was monitored by reverse transcriptase activity until peak virus production occurred (usually 7 to 9 days post transfection). Prior to transfection, the CEMx174 cells were spiked with the following azide-modified biomolecules: 15-azidopentadecanoic acid (50-100 μM), 12-azidododecanoic acid (50-100 μM), tetraacetylated N-azidoacetylgalactosamine (20-40 μM), and tetraacetylated N-azidoacetyl-D-mannosamine (20-40 μM).
Labeled virus was also obtained from the transfected cells. More specifically, virus-containing supernatants were collected and virus was purified through 20% sucrose as previously described (Graham, D. R. et al., Proteomics 2008, 8:4919-30). The purified virus was then mixed with the CLICK-IT® detection reagent, tetramethylrhodamine (TAMRA) alkyne and the CLICK-IT® Protein Reaction Buffer Kit (Invitrogen, Carlsbad, Calif.). Virus samples were run on a one-dimensional gel to reveal azide-labeled viral proteins (FIG. 2). […]
To examine the effect of the azide-modified biomolecules on the innate biology of the virus, the azide-labeled virus from the transfected cells was isolated and tested in cell infection studies. […] Viral infectivity was determined by measuring cellular luciferase activities with two different luciferase reagents.

[1] = system: Nuclear-GFP BacMam 2.0 virus (baculovirus); assay: BacMam baculovirus infectivity in U2-OS cells (nuclear-GFP expression); assay type: cell-based; conditions: virus labeled in Sf9 cells with 50 uM analog; 20 or 50 uL virus, overnight at 37C; FIG. 5
Source text: Inhibition of insect cell baculovirus infectivity with azido fatty acid analogs: The BacMam system uses a modified insect cell virus (baculovirus) as a vehicle to efficiently deliver and express genes in mammalian cells, A Nuclear-GFP BacMam 2.0 expression system (Invitrogen, C10602) was used as a model to determine if PTM analog labeling of the virus would affect mammalian cell infectivity. Viruses were labeled with various PTM analogs and used to infect mammalian cells. Infectivity was determined by the expression of nuclear-GFP, is viral entry into the cell is required for expression of GFP protein. […]
Characterization of BacMam virus production: To verify, quantitate, and normalize the amount of enriched viruses obtained from insect cell supernatants, samples of each virus were lysed in SDS sample preparation buffer (SPB), sonicated with a probe tip sonicator, and heated at 90C to completely dissolve the viral proteins. Viral protein concentrations of the lysates were then determined. […]
Mammalian cell infection protocol: To determine if the PTM analog-labeled viruses retain the ability to infect mammalian cells, 50,000 U2-OS cells (human osteosarcoma cell line) were plated onto a 6 well-chamber glass bottom plate. […] The following day cells were imaged on AMG EVOS fluorescence microscope at 10× or 20× magnification using both white light and GFP filters (FIG. 5). […]

Row | Compound | impact on the infectivity of the virus (cellular luciferase activities) (HIV) | nuclear-GFP expression in U2-OS cells treated with labeled BacMam virus [1]
1 | [N-]=[N+]=NCCCCCCCCCCCC(=O)O [12-azidododecanoic acid] | profound impact on the infectivity of the virus | no nuclear-GFP expression
2 | [N-]=[N+]=NCCCCCCCCCCCCCCC(=O)O [15-azidopentadecanoic acid] | – | no nuclear-GFP expression
